Tests used:
[1] = system: MOG35-55-induced EAE mice; assay: MOG35-55-induced EAE mouse model, daily intraperitoneal ISP; type: in vivo
Text: For induction of EAE, C57BL6/J female mice at 10-week-old of age were immunized with MOG35-55 together with complete Freund's adjuvant emulsion (Hooke Laboratories, MOG35-55 EAE Induction kit, EK-2110) according to the manufacturers' instruction. Using the EAE Induction Kit result in 98% successful disease induction. All EAE animals were monitored daily and scored using a clinical scale from 0 to 5 (0: no abnormality; 1: limp tail; 2: limp tail and hind legs weakness; 3: limp tail and complete paralysis of hind legs; 4, hind leg and partial front leg paralysis; 5: moribund. Once EAE mice scored for I or 3, they were randomly recruited into treatment group and vehicle group. For treatment group, 5-7 mice were given daily intraperitoneal injections of ISP (20 μg/day), or 5% DMSO in saline, 100 μl) for Vehicle group. Experiments were blinded and animals were scored daily. For ISP Onset: ISP treatment was given at onset of sickness scored by clinical scale. For ISP Peak: ISP treatment was given at peak of sickness scored by clinical scale
LFB staining was performed according to the manufacturer's instruction (#26681, Electron Microscopy Sciences). For spinal cord sections, 20 μm coronal sections were incubated in LFB solution in 56° C. overnight and then rinsed sequentially with 95% alcohol and distilled water. The sections were then in 0.1% lithium carbonate solution and followed dehydration with a series of gradated ethanol, cleared with Histoclear and mounted. A set of serial matched sections were imaged and analyzed. Images (5 to 6 sections/animal) were captured under light microscope. The demyelinated areas (lack of LFB staining) were quantified using ImageJ software. For EAE sections, demyelinated areas were measured and represented as a percentage of total area of spinal cord. For sections of LPC model, lesion volumes were calculated by the lesion area from serial sections throughout the entire lesion based on the equation for volume of cylinder (V=lesion area×length of lesion).
Mice were anesthetized with avertin and perfusion with PBS and 4% paraformaldehyde (PFA). Brain or spinal cord were dissected and post-fixed in 4% PFA overnight at 4° C. and equilibrated in 20% sucrose. 20 μm-thick sections were pretreated with Reveal Decloaker Solution (RV 1000M, Biocare Medical) for antigen retrieval according to the manufacturer's instructions. After blocking, sections were incubated with primary antibodies overnight at 4° C. and followed by appropriate secondary antibodies conjugated with Alexa fluorescence 488 or 594. The following primary antibodies were used: MBP (SMI-99P, Covance, 1:300), NeuF200 (N4142, Sigma, 1:250), CS-56 (C8035, Sigma, 1:250), CAT301 (MAB5284, Millipore, 1:250), versican (AB 1032, Millipore, 1:250), Iba1 (019-19741, WAKO, 1:250), GFAP (MAB360, Millipore, 1:250), Olig2 (AB9610, Millipore, 1:250), CC1 (OP80, Millipore, 1:250). For each staining, at least 3 individual animals/group were examined and images were captured with a Leica DFC500 fluorescence microscope. Staining was quantified using Image J software (US National Instisutes of Health, USA). Fluorescence intensity was calculated as percentages of the mean value of the naïve controls.
For ultrastructural analyses of myelination, anesthetized animals were perfused with 2% glutaraldehyde/4% paraformaldehyde in 0.1 M sodium carcodylate buffer, PH7.4 (Electron Microscopy Sciences). Lesioned areas of the LPC or EAE-induced spinal cords from ISP-treated or control animals were dissected and post-fixed in 1% OsO4 for 2 hrs. Coronal sections ([…]) of spinal cord or brain containing corpus callosum were prepared (Leica, Vibratome), dehydrated, stained with saturated uranyl acetate and embedded in a Poly/Bed812 resin (Polysciences Inc.). The 1 μm-thick sections were cut and stained with toluidine blue, and matched areas were selected for EM analysis. […]

OPC secreted proteases = assay: Protease array screen of OPC conditioned media; type: cell-based, mouse; conditions: OPC CM, 2.5 μM ISP for 4 div vs vehicle
Protocol: OPCs were cultured on 6-well plates for 4 div with vehicle control or 2.5 μM ISP treatment. Conditioned media was collected from each group and cell-strained before incubation with blot array provided in R & D Systems Protease Array Kit (ARY025). Instructions from kit were followed with overnight incubation of collected media at 4° C. Control and ISP blots were developed together with the same exposure time and pixel intensities of array was assess using ImageJ (NIH).

MMP-10 = MMP-10 western blot of OPC conditioned media; type: cell-based, mouse; conditions: OPC CM, 2.5 μM peptide, same as vehicle
Protocol: To assess MMP-2 or 10 in OPC CM or lysates, OPCs were incubated on precoated PLL, aggrecan, and laminin as described above. OPCs were treated with vehicle, 2.5 μM ISP or SISP for 2 days at 37° C. CM was then harvested and concentrated using Milipore Ultracel YM-C centrifugal filter units at max speed (Eppendorf Centrifuge […]) for 30 minutes at 4° C. […] of concentrated CM was loaded into each lane. OPC lysates were assessed using western blot techniques described below with […] protein loaded from each group. Tissue samples or cerebellar slices or purified OPC cells were homogenized with RIPA lysis buffer and protein concentration was determined by Pierce BCA protein assay kit according to the manufacture instruction (Thermo Fisher). Then, equal amounts of protein were loaded to 15% SDS-PAGE gels, and electrophoretically transferred to PVDF membranes (Millipore). The membranes were blocked in 0.1% TPBS buffer with 5% non-fat milk for 1h at room temperature and probed with indicated primary antibodies overnight at 4° C. and followed by secondary antibody conjugated to horseradish peroxidase (HRP). […] Enhanced chemiluminescence was performed with a West Pico Kit (Thermo Fisher) and detected by FluorChem E system (ProteinSimple, USA). The density of bands was quantified using ImageJ software (NIH).

[2] = 41 days following EAE induction

GRKKRRQRRRCDMAEHMERLKANDSLKLSQEYESI [ISP]
demyelination baseline (LFB) vs vehicle ([1]; 18 days following EAE induction): not significantly different
GFAP (reactive astrocytes) immunofluorescence [1, 2]: significant decreases
Iba1 (microglia/macrophages) immunofluorescence [1, 2]: significant decreases
time until functional recovery was initially observed ([1]; EAE ISP Onset group, ISP 20 μg/mouse daily i.p., days of ISP administration): 10 to 12 days
clinical score ([1]; EAE ISP Onset group, several animals, after 20-22 days of ISP (~33 days post immunization)): 0.5-1
clinical score ([1]; EAE ISP Peak group, ISP started at peak of sickness): improved significantly
percentage of CC1+ oligodendrocytes in lesions ([1]; EAE animals, 41 days): significantly enhanced
number of myelinated/remyelinated axons, electron microscopy ([1]; EAE-lesioned spinal cord vs vehicle): increase of myelinated/remyelinated axons
MBP immunostaining ([1]; ISP for 41 days vs control EAE animals): denser
lesion size, LFB myelin staining ([1]; Onset treated animals, spinal cord): especially reduced
Arginase-1 (M2 microglia marker) immunostaining ([1]; spinal cord of EAE mice): increased M2 microglia
iNOS (M microglia marker) immunostaining ([1]; spinal cord of EAE mice): decreased M microglia
MBP expression, western blot ([1]; spinal cord tissue of EAE mice): restoration of MBP expression
CSPG (Cat301, aggrecan) immunostaining ([1]; thoracic spinal cord, 41 days post-induction): markedly decreased
protease array signal for ADAMTS, Kallikreins, Cathepsins, MMPs (OPC secreted proteases): increased signal
protease array signal for Cathepsins L and V and MMP-10 (laminin degrading) (OPC secreted proteases): reduced
MMP-10 secretion, western blot (MMP-10): equally low amounts
